Experimental data as given in patent EP4603105A1, “PHARMACEUTICAL COMPOSITION CONTAINING CYCLIC COMPOUND HAVING SELECTIVE KRAS INHIBITORY EFFECT AGAINST HRAS AND NRAS” (CHUGAI SEIYAKU KABUSHIKI KAISHA, priority 2022, dated 2024).
Read-outs that look alike come from different tables or passages of the source. *1 amine or outer side, *2 acyl side, *3 side chain or, on linkers, in order; H or OH if unused. Where a SMILES comes first, the peptide text is derived from it. Bridges are numbered along the chain shown (N, C = ends). [ ]: non-standard residue; d: D form. The star is where a group is joined. hPhe(3-Cl-4-CF3) = N[C@@H](CCc1ccc(C(F)(F)F)c(Cl)c1)C(=O)O; NPrPhe(4-CF3) = CCCN[C@@H](Cc1ccc(C(F)(F)F)cc1)C(=O)O; NPrAsp = CCCN([C@@H](CC(=O)[*:3])C(=O)[*:2])[*:1]; Abu(4,4,4-F3) = N[C@@H](CC(F)(F)F)C(=O)O; NMeGly(cPent) = CN[C@H](C(=O)O)C1CCCC1; NMeD = CN[C@@H](CC(=O)O)C(=O)O; NMeL = CN[C@@H](CC(C)C)C(=O)O; NMeNva = CCC[C@H](NC)C(=O)O; Morpholide = C1CN(*)CCO1; Ac5c = NC1(C(=O)O)CCCC1; Ac4c = NC1(C(=O)O)CCC1; Sar = CNCC(=O)O

What was measured:
[1] = molecular target: GDP-bound NRAS wild-type protein (Homo sapiens, UniProt P01111); assay: Binding to NRAS by surface plasmon resonance (SPR), KD and KD ratio to KRAS
GDP-bound NRAS wild-type protein, sequence (P01111 whole entry): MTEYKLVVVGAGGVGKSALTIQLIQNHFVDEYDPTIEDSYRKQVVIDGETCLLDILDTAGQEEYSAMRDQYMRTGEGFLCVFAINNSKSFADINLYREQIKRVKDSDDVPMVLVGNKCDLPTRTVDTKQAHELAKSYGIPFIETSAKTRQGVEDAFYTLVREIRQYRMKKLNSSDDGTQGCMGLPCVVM
Method: (§1) Surface plasmon resonance was used to analyze the binding affinity of compounds for KRAS, NRAS, and HRAS. The apparatus used was Biacore 8K, 8K+, or T200 (GE Healthcare), and the running buffer used was HBS (10 mM HEPES-NaOH, 150 mM NaCl, pH 7.4) containing 1 mM DTT, 10 mM MgCl2, 0.01% Tween 20, 10 µM GDP, and 4% DMSO.
(§2) Biotinylated Avi-tag fusion KRAS, NRAS, and HRAS proteins were expressed in E. coli BL21 (DE3) strains, and after cells were homogenized, they were purified using Streptavidin Mutein Matrix and Superdex 75. After purification, GDP-loaded KRAS, NRAS, and HRAS proteins were immobilized on the surface of Sensor Chip CAP (Cytiva) coated with Biotin CAPture Reagent in an immobilization amount of about 100 to 300 RU. Binding of each compound was evaluated by the Single Cycle Kinetics method, and a running buffer or a compound solution was added to the RAS protein non-immobilized surface and the immobilized surface to obtain a binding response. The flow rate was set to 100 µL/min, and in the compound-adding cycle, compound solutions having different concentrations were intermittently added for 75 seconds each, starting from a low concentration. […] In the blank cycle, a running buffer was intermittently added and not the compound solution. The Biotin CAPture Reagent and RAS proteins were immobilized for each cycle, and at the end of each cycle, the sensor chip was regenerated by the regeneration solution appended to the Biotin CAPture Kit (Cytiva). Measurement was carried out at 30°C.
(§3) The resulting sensorgram was subjected to curve fitting based on a 1:1 binding model on Biacore Insight Evaluation Software or T200 Evaluation Software, and thereby the dissociation constant KD of each compound with respect to KRAS, NRAS, and HRAS was determined. […] Blank indicates a compound from which the KD value with respect to NRAS or HRAS was not obtained.

[2] = system: human lung cancer strain NCI-H441; format: cell-based
Method in brief: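 Step one: dispense the test compound in serial DMSO dilutions. Step three: add the reagent and measure […].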

[3] = molecular target: HRAS wild-type protein (Homo sapiens, UniProt P01112); assay: Binding to HRAS by surface plasmon resonance (SPR), KD and KD ratio to KRAS
HRAS wild-type protein, sequence (P01112 whole entry): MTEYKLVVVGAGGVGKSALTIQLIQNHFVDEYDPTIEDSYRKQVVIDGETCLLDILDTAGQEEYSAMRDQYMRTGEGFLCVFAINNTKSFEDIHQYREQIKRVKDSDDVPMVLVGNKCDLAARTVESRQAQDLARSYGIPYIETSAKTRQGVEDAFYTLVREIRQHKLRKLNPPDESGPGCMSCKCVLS
Method: as §1, §2, §3

[4] = ratio of KD for GDP-bound NRAS wild-type protein to KD for KRAS
[5] = ratio of KD for HRAS wild-type protein to KD for KRAS
[6] = ratio of the KD value with respect to GDP-bound NRAS wild-type protein to the KD value with respect to KRAS
[7] = ratio of the KD value with respect to HRAS wild-type protein to the KD value with respect to KRAS

| IC50 [2] [nM] | IC50 ([2]; NCI-H441 cells, 4 days, CellTiter-Glo, read-out: NCl-H441 IC50) [nM] | SMILES | NRAS /KRAS [1, 4] | HRAS /KRAS [3, 5] | NRAS /KRAS [1, 6] | HRAS /KRAS [3, 7] | NRAS /KRAS ([1]; ratio of KD value for GDP-bound NRAS wild-type protein to KD value for KRAS (SPR)) | HRAS /KRAS ([3]; ratio of KD value for HRAS wild-type protein to KD value for KRAS (SPR)) |
| --- | --- | --- | --- | --- | --- | --- | --- | --- |
| 24.2 |  | CCC[C@H]1C(=O)N[C@@H]([C@@H](C)CC)C(=O)N(C)CC(=O)N(C)[C@H]2C/C=C\CCN(C2=O)[C@@H](Cc2ccc(C(F)(F)F)cc2)C(=O)N(C)CC(=O)N[C@@H](CCc2cc(Cl)c3c(ccn3C)c2)C(=O)N2C[C@H](OCC)C[C@H]2C(=O)NC2(CC(C)(C)C2)C(=O)N(C)[C@@H](C2CCCC2)C(=O)N(C)[C@H](C(=O)N(C)C)CC(=O)N1C [PP2950] | A (a compound having 10 or more and less than 20 is denoted as A) | A (a compound having 10 or more and less than 20 is denoted as A) |  |  |  |  |
| 7.5 |  | C=CCN1CC(=O)N(C)[C@H]2C/C=C\CCN(C2=O)[C@@H](Cc2ccc(C)cc2)C(=O)N(C)CC(=O)N[C@@H](CCc2cc(F)c(C(F)(F)F)c(F)c2)C(=O)N2C[C@H](OCC)C[C@H]2C(=O)NC2(CC(C)(C)C2)C(=O)N(C)[C@@H](C2CCCC2)C(=O)N(C)[C@H](C(=O)N(C)C)CC(=O)N(C)[C@@H](CC(C)C)C(=O)N[C@@H]([C@@H](C)CC)C1=O [PP2050] |  |  | A (a compound having 10 or more and less than 20 is denoted as A) | A (a compound having 10 or more and less than 20 is denoted as A) |  |  |
| 18 |  | CC[C@H](C)[C@@H]1NC(=O)[C@H](CC(C)C)N(C)C(=O)C[C@@H](C(=O)N(C)C)N(C)C(=O)[C@H](C2CCCC2)N(C)C(=O)C2(CCCC2)NC(=O)[C@@H]2CC(F)(F)CN2C(=O)[C@H](CCc2cc(F)c(C(F)(F)F)c(F)c2)NC(=O)CN(C)C(=O)[C@H](Cc2ccc(C(F)(F)F)cc2)N2CCCCC[C@@H](C2=O)N(C)C(=O)CN(C)C1=O [PP0465] |  |  | B (a compound having 3 or more and less than 10 is denoted as B) | B (a compound having 3 or more and less than 10 is denoted as B) |  |  |
| 35.2 |  | C#CC[C@H]1C(=O)N[C@@H]([C@@H](C)CC)C(=O)N(C)CC(=O)N(C)[C@H]2C/C=C\CCN(C2=O)[C@@H](Cc2ccc(C(F)(F)F)cc2)C(=O)N(C)CC(=O)N[C@@H](CCc2ccc(C(F)(F)F)c(OC)c2)C(=O)N2CCOC[C@H]2C(=O)NC2(CC(C)(C)C2)C(=O)N(C)[C@@H](C2CCCC2)C(=O)N(C)[C@H](C(=O)N(C)C)CC(=O)N1C [PP2905] | AA (a compound having 20 or more is denoted as AA) | A (a compound having 10 or more and less than 20 is denoted as A) |  |  |  |  |
| 44.9 |  | CC[C@H](C)[C@@H]1NC(=O)[C@H](CC(C)C)N(C)C(=O)C[C@@H](C(=O)N2CCOCC2)N(C)C(=O)[C@H](C2CCCC2)N(C)C(=O)C2(CC(F)(F)C2)NC(=O)[C@@H]2CCCN2C(=O)[C@H](CCc2cc(F)c(C(F)(F)F)c(F)c2)NC(=O)CN(C)C(=O)[C@H](Cc2ccc(C(F)(F)F)cc2)N2CCCCC[C@@H](C2=O)N(C)C(=O)CN(C)C1=O [PP0499] |  |  | B (a compound having 3 or more and less than 10 is denoted as B) | B (a compound having 3 or more and less than 10 is denoted as B) |  |  |
|  | 112 | CCC[C@H]1C(=O)N[C@@H]([C@@H](C)CC)C(=O)N(C2CC2)CC(=O)N(C)[C@H]2C/C=C\CCN(C2=O)[C@@H](Cc2ccc(C)cc2)C(=O)N(C)CC(=O)N[C@@H](CCc2ccc(C3CC3)c(C)c2)C(=O)N2C[C@H](OCC)C[C@H]2C(=O)NC2(CC(C)(C)C2)C(=O)N(C)[C@@H](C2CCCC2)C(=O)N(C)[C@H](C(=O)N(C)C)CC(=O)N1C [PP2886] | A (a compound having 10 or more and less than 20 is denoted as A) | A (a compound having 10 or more and less than 20 is denoted as A) |  |  |  |  |
| 79.5 |  | CC[C@H](C)[C@@H]1NC(=O)[C@H](CC(C)C)N(C)C(=O)C[C@@H](C(=O)N2CCOCC2)N(C)C(=O)[C@H](CC(F)(F)F)N(C)C(=O)C2(CCCC2)NC(=O)[C@@H]2CCCN2C(=O)[C@H](CCc2cc(F)c(C(F)(F)F)c(F)c2)NC(=O)CN(C)C(=O)[C@H](Cc2ccc(C(F)(F)F)cc2)N2CCCC[C@@H](C2=O)N(C)C(=O)CN(C)C1=O [PP0568] |  |  | B (a compound having 3 or more and less than 10 is denoted as B) | B (a compound having 3 or more and less than 10 is denoted as B) |  |  |
| 134 |  | CC[C@H](C)[C@@H]1NC(=O)[C@H](CC(C)C)N(C)C(=O)C[C@@H](C(=O)N2CCOCC2)N(C)C(=O)[C@H](C2CCCC2)N(C)C(=O)C2(CCC2)NC(=O)[C@@H]2[C@@H](O)CCN2C(=O)[C@H](CCc2cc(F)c(C(F)(F)F)c(F)c2)NC(=O)CN(C)C(=O)[C@H](Cc2ccc(C(F)(F)F)cc2)N2CCCC[C@@H](C2=O)N(C)C(=O)CN(C)C1=O [PP0869] | B (a compound having 3 or more and less than 10 is denoted as B) | B (a compound having 3 or more and less than 10 is denoted as B) |  |  |  |  |
| 13.4 |  | CCO[C@@H]1C[C@H]2C(=O)NC3(CCC3)C(=O)N(C)[C@@H](C3CCCC3)C(=O)N(C)[C@H](C(=O)N(C)C)CC(=O)N(C)[C@@H](CC(C)C)C(=O)N[C@@H]([C@@H](C)CC)C(=O)N(C)CC(=O)N(C)[C@H]3C/C=C\CCN(C3=O)[C@@H](Cc3ccc(F)cc3C)C(=O)N(C)CC(=O)N[C@@H](CCc3cc(F)c(C(F)(F)F)c(F)c3)C(=O)N2C1 [PP1532] |  |  |  |  | A (a compound having 10 or more and less than 20 is denoted as A) | B (a compound having 3 or more and less than 10 is denoted as B) |
| 25.5 |  | CCCN1C(=O)CN(C)C(=O)CN(C)C(=O)[C@H](CC(F)(F)F)NC(=O)[C@H](CC(C)C)N(C)C(=O)C[C@@H](C(=O)N2CCOCC2)N(C)C(=O)[C@H](C2CCCC2)N(C)C(=O)C2(CCCC2)NC(=O)[C@@H]2CCCN2C(=O)[C@H](CCc2ccc(C(F)(F)F)c(Cl)c2)NC(=O)CN(C)C(=O)[C@@H]1Cc1ccc(C(F)(F)F)cc1 [PP0249] ([NMeL][Abu(4,4,4-F3)][Sar][Sar][NPrPhe(4-CF3)][Sar][hPhe(3-Cl-4-CF3)]P[Ac5c][NMeGly(cPent)][NMeD]-Morpholide; lactam N-11) | B (a compound having 3 or more and less than 10 is denoted as B) | C (A compound having a KD ratio of 0.1 or more and less than 3 is denoted as C) |  |  |  |  |
| 8.1 |  | CCC[C@H]1C(=O)N[C@@H]([C@@H](C)CC)C(=O)N(C)CC(=O)N(C)CC(=O)N(CCC)[C@@H](Cc2ccc(C(F)(F)F)cc2)C(=O)N(C)CC(=O)N[C@@H](CCc2ccc(C(F)(F)F)c(Cl)c2)C(=O)N2CCC[C@H]2C(=O)NC2(CCC2)C(=O)N(C)[C@@H](C2CCCC2)C(=O)N(CCC)[C@H](C(=O)N2CCOCC2)CC(=O)N1C [PP1954] ([NMeNva]I[Sar][Sar][NPrPhe(4-CF3)][Sar][hPhe(3-Cl-4-CF3)]P[Ac4c][NMeGly(cPent)][NPrAsp]-Morpholide; lactam N-11) |  |  | B (a compound having 3 or more and less than 10 is denoted as B) | B (a compound having 3 or more and less than 10 is denoted as B) |  |  |
| 3.8 |  | CCO[C@@H]1C[C@H]2C(=O)NC3(CCC3)C(=O)N(C)[C@@H](C3CCCC3)C(=O)N(C)[C@H](C(=O)N(C)C)CC(=O)N(C)[C@@H](CC3CC3)C(=O)N[C@@H]([C@@H](C)CC)C(=O)N(C)CC(=O)N(C)[C@H]3CCCCN(C3=O)[C@@H](Cc3ccc(C(F)(F)F)cc3)C(=O)N(C)CC(=O)N[C@@H](CCc3cc(F)c(C(F)(F)F)c(F)c3)C(=O)N2C1 [PP0697] |  |  | C (A compound having a KD ratio of 0.1 or more and less than 3 is denoted as C) | C (A compound having a KD ratio of 0.1 or more and less than 3 is denoted as C) |  |  |
